# How the values were obtained:
# [1] = case report Example 11, treating diarrhea; type: in vivo, human; conditions: after starting 200 mg bid
# Excerpt: A person developed continuing watery diarrhea, as many as twenty episodes a day, and mild fatigue for three months. Laboratory studies and stool work-up were completely negative. […] They failed Asacol therapy.
# [2] = test system: cytokine gene expression; assay: cytokine gene expression study on blood samples before and after oxymatrine (FIG. 4); type: in vivo, human; conditions: blood samples before and after taking oxymatrine for 15 months, one patient
# Excerpt: A cytokine gene expression study on blood samples before (Sample 2) and after (Sample 3) taking oxymatrine for 15 months in one patient, is graphically illustrated in FIG. 4. […] FIG. 5 illustrates that neutralizing antibodies CBV 3 and CBV 4 were obtained serially over a three year period (performed by ARUP laboratory, Salt Lake City, UT).
# [3] = test system: echoviruses; conditions: in vitro; mechanism not defined; cited from earlier work
# [4] = test system: interleukin-12P35+P40/interleukin-10; assay: cytokine gene expression in CFS patients at start of and during oxymatrine therapy (FIG. 5); type: in vivo, human
# Excerpt: • FIG. 1 graphically illustrates the comparison of Th1/Th2 (interleukin-12p35+P40/interleukin-4 + interleukin-10, RQ is the gene expression ratio) gene expression of patients who are functional (able to work) versus totally disability (not able to work). The difference therein is statistically significant (p<0.01, pair t test). • FIG. 2 illustrates the infected human stomach (biopsy of case 5 stained with 5D8/1) before treatment with oxymatrine. • FIG. 3 illustrates the stomach biopsy of case 5 stained with 5 D8/1 after taking oxymatrine for 6 months. • FIG. 4 graphically illustrates a cytokine gene expression study before and after oxymatrine (RQ is the gene expression ratio). • FIG. 5 graphically illustrates cytokine gene expression of interleukin-12P35+P40/interleukin-10 in tissue from CFS patients at the start of (pre-oxymatrine) and during oxymatrine therapy (n=17).
# [5] = test system: enterovirus; assay: open-label, controlled oxymatrine clinical study in ME/CFS patients with enterovirus infection; type: in vivo, human
# Description: An open-label, controlled study was conducted on patients who fulfilled the international criteria for myalgic encephalomyelitis (ME)/chronic fatigue syndrome (CFS) and had virological evidence of enterovirus infection.
# One hundred patients took oxymatrine at dose of 200-300 mg twice a day with or without food for a minimum of three months. Patients who could not complete the course due to side effects or intolerance were considered as failures (intent-to-treat analysis). Of the first group, 52% (52/100) responded to oxymatrine, as compared to 6% (7/114) of the control groups (p <0.000001, X^2 test). Of the next 104 patients, 52% responded to treatment. […] Fifty-three percent (57/107) of patients with elevated […] (CVB) and echovirus (Ech) antibody responded to therapy and 50% (49/97) of patients with non-typeable EV infections improved (NS, X^2 test). Fifty-two percent (47/91) of patients with positive EV protein in stomach biopsies responded, whereas 56% (5/9) of patients with negative biopsies responded (NS, X^2 test).
# [6] = test system: hepatitis B virus; conditions: cited from earlier work
# [7] = side effects in 176 patients having taken oxymatrine
# [8] = compared to placebo-treated animals
smiles,measurement,setting,value
O=C1CCC[C@@H]2[C@H]3CCC[N+]4([O-])CCC[C@@H](CN12)[C@@H]34 (stereo partly drawn) [oxymatrine],diarrhea,[1],resolved completely in a few days
same,"Th1 cytokines gene expression (interleukin-2, interleukin-12, interleukin-15)",[2],significant increase
same,regulatory Th2 cytokine gene expression (interleukin-10),[2],significant decrease
same,growth inhibition of echoviruses in cell cultures,[3],growth inhibition
same,increase of the interleukin-12P35+P40/interleukin-10 ratio (gene expression),"[4]; seven responders of n=17, pre-oxymatrine vs during therapy",greater than 2 fold
same,interleukin-12P35+P40/interleukin-10 ratio (gene expression),"[4]; ten non-responders of n=17, pre-oxymatrine vs during therapy",remained the same or decreased
same,changes of other chemistry parameters and complete blood counts (CBC),[5]; compared to baseline values,no significant changes
same,patients who relapsed responded to restart of oxymatrine,[5]; eighty-seven percent,13/15
same,patients responded to oxymatrine,"[5]; first group (52/100), 200-300 mg twice a day, minimum three months, intent-to-treat, control groups 6% (7/114), p <0.000001",52%
same,"patients reporting transient, moderate increase in pre-existing symptoms","[5]; human, in vivo",more than 50%
same,patients with elevated blood pressure that prompted discontinuation of therapy,"[5]; human, in vivo",2/204
same,serious complications during therapy,"[5]; human, in vivo",No serious complications
same,tolerability,"[5]; most of the patients, except for variable increase of pre-existing symptoms during the first 1-2 days of maximal doses",tolerated oxymatrine well
same,patients responded to treatment,[5]; next 104 patients,52%
same,patients responded to therapy,"[5]; patients with elevated chrysanthemum virus B (CVB) and echovirus (Ech) antibody, fifty-three percent",57/107
same,patients responded,[5]; patients with negative biopsies (5/9),56%
same,patients improved,[5]; patients with non-typeable EV infections (49/97),50%
same,patients responded,"[5]; patients with positive EV protein in stomach biopsies, fifty-two percent",47/91
same,patients with transient increase in potassium,[5]; returned to normal without specific treatment,2/204
same,Diffuse rashes: % of total patients,[5]; [7],< 1%
same,Dry eyes and mouth: % of total patients,[5]; [7],1%
same,Fevers: % of total patients,[5]; [7],2%
same,Herpes simplex virus outbreak after discontinuation: % of total patients,[5]; [7],1%
same,Increase in blood pressure: % of total patients,[5]; [7],1%
same,Increase in edema: % of total patients,[5]; [7],1%
same,Increased abdominal pain: % of total patients,[5]; [7],6%
same,Increased bladder symptoms: % of total patients,[5]; [7],2%
same,Increased diarrhea: % of total patients,[5]; [7],4%
same,Increased dizziness: % of total patients,[5]; [7],2%
same,Increased fatigue: % of total patients,[5]; [7],4%
same,Increased headache: % of total patients,[5]; [7],8%
same,Increased insomnia: % of total patients,[5]; [7],1%
same,Increased myalgia: % of total patients,[5]; [7],30%
same,Increased nausea: % of total patients,[5]; [7],6%
same,"Increased palpitation, chest pain: % of total patients",[5]; [7],3%
same,Increased polyarthralgia: % of total patients,[5]; [7],1%
same,Increased sinus congestion: % of total patients,[5]; [7],3%
same,Inflammation of skin lesion: % of total patients,[5]; [7],1%
same,New rashes: % of total patients,[5]; [7],< 1%
same,Seizure (petit mal): % of total patients,[5]; [7],< 1%
same,Weight gain: % of total patients,[5]; [7],1%
same,patients who stopped oxymatrine due to intolerable side effects,"[5]; within the first eight weeks, twenty patients",10%
same,patients relapsed after discontinuation of oxymatrine,"[5]; within two days to one month after discontinuation, fifty-nine percent",19/32
same,level of gamma interferon,[6]; [8],increased more than three-fold
same,level of interleukin-2,[6]; [8],increased more than three-fold
same,level of interleukin-4,[6]; [8],decreased more than three-fold
same,level of interleukin-10,[6]; [8],decreased more than three-fold
same,"effect on the hepatitis B viremia, mRNA and protein levels","[6]; mouse, in vivo",No effect

# — patent publication EP2307018B1, “OXYMATRINE COMPOSITIONS AND USE THEREOF FOR TREATING AND PREVENTING CHRONIC INFECTIOUS DISEASES” (Chia, John K.S., priority 2008, dated 2010)
